Tests used:
[1] = molecular target: Dual specificity protein kinase CLK3 (Homo sapiens, UniProt P49761)
Description: Inhibition of CLK3 (unknown origin) incubated for 10 mins in presence of ATP

[2] = molecular target: Dual specificity protein kinase CLK2 (Homo sapiens, UniProt P49760)
Description: Inhibition of CLK2 (unknown origin) incubated for 10 mins in presence of ATP

[3] = molecular target: T1, Dual specificity tyrosine-phosphorylation-regulated kinase 1A (Homo sapiens, UniProt Q13627)
Description: Inhibition of DYRK1A (unknown origin) incubated for 10 mins in presence of ATP

[4] = molecular target: Serine/threonine-protein kinase pim-3 (Homo sapiens) (UniProt Q86V86); settings: dose 100.0 nM
Description: Inhibition of PIM3 (unknown origin) at 100 nM relative to control

[5] = molecular target: T2, Dual specificity protein kinase CLK4 (Homo sapiens, UniProt Q9HAZ1); settings: dose 100.0 nM
Target sequence in this assay (Q9HAZ1 whole entry, looked up): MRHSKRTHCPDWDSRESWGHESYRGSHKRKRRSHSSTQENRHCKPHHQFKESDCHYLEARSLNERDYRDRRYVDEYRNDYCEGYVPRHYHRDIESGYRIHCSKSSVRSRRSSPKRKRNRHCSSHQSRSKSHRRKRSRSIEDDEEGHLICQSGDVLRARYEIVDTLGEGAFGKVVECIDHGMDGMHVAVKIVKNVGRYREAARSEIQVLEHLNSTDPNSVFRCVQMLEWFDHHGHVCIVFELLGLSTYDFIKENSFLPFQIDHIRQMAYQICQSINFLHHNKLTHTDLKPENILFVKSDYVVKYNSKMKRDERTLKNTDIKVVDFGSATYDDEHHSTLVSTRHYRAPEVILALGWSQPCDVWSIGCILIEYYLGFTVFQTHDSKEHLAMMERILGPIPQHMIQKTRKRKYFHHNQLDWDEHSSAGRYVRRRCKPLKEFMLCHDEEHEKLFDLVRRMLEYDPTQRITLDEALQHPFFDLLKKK
Description: Inhibition of CLK4 (unknown origin) at 100 nM relative to control

[6] = molecular target: Receptor-type tyrosine-protein kinase FLT3 (Homo sapiens) (UniProt P36888); settings: dose 100.0 nM
Description: Inhibition of FLT3 (unknown origin) at 100 nM relative to control

[7] = molecular target: T3, Serine/arginine-rich splicing factor 6 (Rattus norvegicus) (UniProt G3V6S8); settings: Chondrocyte, dose 10-100 nM, time 1.0 hrs
T3 sequence (whole entry): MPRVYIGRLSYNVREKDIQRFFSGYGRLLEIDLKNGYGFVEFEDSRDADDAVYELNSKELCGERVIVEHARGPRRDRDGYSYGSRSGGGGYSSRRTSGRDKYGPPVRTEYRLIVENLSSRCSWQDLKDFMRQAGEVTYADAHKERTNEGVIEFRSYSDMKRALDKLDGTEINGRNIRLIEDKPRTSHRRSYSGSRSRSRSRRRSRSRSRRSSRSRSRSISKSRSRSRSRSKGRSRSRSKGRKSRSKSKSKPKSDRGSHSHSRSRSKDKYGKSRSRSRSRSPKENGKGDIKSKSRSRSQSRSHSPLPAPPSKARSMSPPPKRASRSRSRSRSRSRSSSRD

[8] = molecular target: T2, Dual specificity protein kinase CLK4
Target sequence in this assay (Q9HAZ1 whole entry): as the sequence (Q9HAZ1 whole entry, looked up) above
Description: Inhibition of CLK4 (unknown origin) incubated for 10 mins in presence of ATP

[9] = molecular target: TRAF2 and NCK-interacting protein kinase (Homo sapiens) (UniProt Q9UKE5); settings: dose 100.0 nM
Description: Inhibition of TNIK (unknown origin) at 100 nM relative to control

[10] = molecular target: Dual specificity tyrosine-phosphorylation-regulated kinase 1B (Homo sapiens) (UniProt Q9Y463); settings: dose 100.0 nM
Sequence of Dual specificity tyrosine-phosphorylation-regulated kinase 1B (Homo sapiens) (Q9Y463 whole entry, looked up): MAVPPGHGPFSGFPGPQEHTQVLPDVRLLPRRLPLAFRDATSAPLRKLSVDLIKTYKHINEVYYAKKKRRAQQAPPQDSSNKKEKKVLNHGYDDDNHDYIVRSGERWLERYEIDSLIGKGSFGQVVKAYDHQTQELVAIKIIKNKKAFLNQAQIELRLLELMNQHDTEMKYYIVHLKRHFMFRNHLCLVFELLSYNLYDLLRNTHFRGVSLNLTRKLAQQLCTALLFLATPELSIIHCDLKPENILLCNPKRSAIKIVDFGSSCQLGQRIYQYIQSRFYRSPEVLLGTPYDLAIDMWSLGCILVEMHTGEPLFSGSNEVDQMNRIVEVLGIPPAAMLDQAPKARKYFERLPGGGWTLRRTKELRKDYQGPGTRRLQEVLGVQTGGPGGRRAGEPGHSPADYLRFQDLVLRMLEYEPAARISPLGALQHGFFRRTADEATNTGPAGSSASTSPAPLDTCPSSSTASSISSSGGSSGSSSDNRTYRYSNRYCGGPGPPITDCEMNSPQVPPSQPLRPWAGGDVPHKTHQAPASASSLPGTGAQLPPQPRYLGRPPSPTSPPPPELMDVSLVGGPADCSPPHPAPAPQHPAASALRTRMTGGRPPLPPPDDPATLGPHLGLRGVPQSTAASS
Description: Inhibition of DYRK1B (unknown origin) at 100 nM relative to control

[11] = molecular target: T1, Dual specificity tyrosine-phosphorylation-regulated kinase 1A; settings: dose 100.0 nM
Description: Inhibition of DYRKIA (unknown origin) at 100 nM relative to control

[12] = molecular target: T4, Dual specificity protein kinase CLK1 (Homo sapiens, UniProt P49759)
Target sequence in this assay (P49759 whole entry): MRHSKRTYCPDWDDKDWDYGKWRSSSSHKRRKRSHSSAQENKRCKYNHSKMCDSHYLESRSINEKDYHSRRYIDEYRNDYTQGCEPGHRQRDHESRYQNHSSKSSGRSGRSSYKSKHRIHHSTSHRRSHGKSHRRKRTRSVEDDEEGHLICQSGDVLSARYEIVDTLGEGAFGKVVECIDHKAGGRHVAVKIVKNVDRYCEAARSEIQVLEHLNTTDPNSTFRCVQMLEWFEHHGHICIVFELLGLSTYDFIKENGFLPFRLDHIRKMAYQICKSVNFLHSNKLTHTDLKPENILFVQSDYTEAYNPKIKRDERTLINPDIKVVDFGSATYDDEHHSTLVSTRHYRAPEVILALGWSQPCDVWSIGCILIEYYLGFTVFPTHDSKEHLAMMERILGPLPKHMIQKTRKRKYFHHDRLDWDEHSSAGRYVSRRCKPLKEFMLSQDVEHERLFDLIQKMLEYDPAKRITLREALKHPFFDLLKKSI
Description: Inhibition of CLK1 (unknown origin) incubated for 10 mins in presence of ATP

[13] = molecular target: T4, Dual specificity protein kinase CLK1; settings: dose 100.0 nM
Target sequence in this assay (P49759 whole entry, looked up): as the sequence (P49759 whole entry) above
Description: Inhibition of CLK1 (unknown origin) at 100 nM relative to control

[14] = molecular target: Homeodomain-interacting protein kinase 2 (Homo sapiens) (UniProt Q9H2X6); settings: dose 100.0 nM
Sequence of Homeodomain-interacting protein kinase 2 (Homo sapiens) (Q9H2X6 whole entry, looked up): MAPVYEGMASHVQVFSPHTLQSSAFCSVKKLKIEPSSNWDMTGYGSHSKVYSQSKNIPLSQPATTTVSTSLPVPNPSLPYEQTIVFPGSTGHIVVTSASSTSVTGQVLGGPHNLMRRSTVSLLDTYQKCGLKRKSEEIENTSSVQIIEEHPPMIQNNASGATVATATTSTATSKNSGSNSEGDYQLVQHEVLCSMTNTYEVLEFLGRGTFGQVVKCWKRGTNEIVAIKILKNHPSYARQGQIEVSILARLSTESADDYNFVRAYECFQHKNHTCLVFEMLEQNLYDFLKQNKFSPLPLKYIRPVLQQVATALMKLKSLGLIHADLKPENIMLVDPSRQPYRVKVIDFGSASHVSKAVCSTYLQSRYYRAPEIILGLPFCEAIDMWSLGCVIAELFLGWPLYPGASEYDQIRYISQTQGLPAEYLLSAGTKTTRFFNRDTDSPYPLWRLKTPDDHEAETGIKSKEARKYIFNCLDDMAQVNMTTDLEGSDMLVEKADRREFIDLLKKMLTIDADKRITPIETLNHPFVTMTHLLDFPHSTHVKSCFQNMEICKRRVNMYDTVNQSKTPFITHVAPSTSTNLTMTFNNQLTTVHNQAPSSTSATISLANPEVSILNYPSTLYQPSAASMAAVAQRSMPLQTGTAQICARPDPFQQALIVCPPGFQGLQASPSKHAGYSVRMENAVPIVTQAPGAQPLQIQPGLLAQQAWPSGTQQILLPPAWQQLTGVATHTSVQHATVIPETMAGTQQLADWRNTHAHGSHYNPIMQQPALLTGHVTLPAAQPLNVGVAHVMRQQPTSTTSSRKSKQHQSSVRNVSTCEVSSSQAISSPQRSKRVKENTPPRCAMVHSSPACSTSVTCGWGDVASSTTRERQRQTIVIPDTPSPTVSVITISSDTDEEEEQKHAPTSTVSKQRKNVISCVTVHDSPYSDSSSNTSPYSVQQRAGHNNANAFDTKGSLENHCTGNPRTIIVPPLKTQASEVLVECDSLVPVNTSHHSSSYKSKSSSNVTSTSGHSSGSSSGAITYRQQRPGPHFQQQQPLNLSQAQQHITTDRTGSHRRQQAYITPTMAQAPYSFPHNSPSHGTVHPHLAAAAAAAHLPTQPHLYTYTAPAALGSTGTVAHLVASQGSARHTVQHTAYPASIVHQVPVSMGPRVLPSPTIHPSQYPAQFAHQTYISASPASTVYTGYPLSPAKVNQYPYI
Description: Inhibition of HIPK2 (unknown origin) at 100 nM relative to control

Sequence of Dual specificity protein kinase CLK2 (P49760 whole entry): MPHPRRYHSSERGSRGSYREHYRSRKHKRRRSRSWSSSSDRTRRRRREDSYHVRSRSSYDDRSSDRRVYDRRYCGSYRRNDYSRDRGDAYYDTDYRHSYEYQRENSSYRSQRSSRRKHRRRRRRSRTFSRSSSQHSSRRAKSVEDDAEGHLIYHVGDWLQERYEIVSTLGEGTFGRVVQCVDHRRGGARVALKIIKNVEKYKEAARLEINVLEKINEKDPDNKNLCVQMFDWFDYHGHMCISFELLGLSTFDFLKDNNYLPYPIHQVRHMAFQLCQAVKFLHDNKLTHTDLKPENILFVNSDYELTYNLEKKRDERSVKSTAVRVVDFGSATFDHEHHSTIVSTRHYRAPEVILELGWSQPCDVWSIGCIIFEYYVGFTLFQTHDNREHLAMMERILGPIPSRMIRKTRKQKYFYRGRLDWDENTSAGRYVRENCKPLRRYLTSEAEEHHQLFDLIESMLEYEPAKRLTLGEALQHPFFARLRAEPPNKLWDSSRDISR
Sequence of Dual specificity protein kinase CLK3 (P49761 whole entry): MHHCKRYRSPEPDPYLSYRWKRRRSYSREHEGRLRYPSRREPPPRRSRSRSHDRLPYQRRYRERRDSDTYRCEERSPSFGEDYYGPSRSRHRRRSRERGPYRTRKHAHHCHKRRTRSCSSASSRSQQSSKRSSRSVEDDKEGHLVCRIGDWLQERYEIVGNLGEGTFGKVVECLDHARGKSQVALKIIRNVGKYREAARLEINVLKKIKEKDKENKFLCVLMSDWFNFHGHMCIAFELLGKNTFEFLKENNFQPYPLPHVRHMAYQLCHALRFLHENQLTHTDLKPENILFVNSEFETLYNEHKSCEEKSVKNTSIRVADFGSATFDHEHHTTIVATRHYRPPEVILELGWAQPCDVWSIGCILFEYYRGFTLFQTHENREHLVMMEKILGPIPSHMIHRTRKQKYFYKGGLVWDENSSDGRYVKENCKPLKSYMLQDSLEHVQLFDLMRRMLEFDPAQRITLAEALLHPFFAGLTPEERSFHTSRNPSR

SMILES: CC(C)CC(=O)Nc1cncc(-c2ccc3[nH]nc(C#Cc4cccnc4)c3c2)c1
- IC50 [1]: 15.6 nM

SMILES: CC(C)CC(=O)Nc1cncc(-c2ccc3[nH]nc(C#Cc4ccc5ccccc5n4)c3c2)c1
- IC50 [1]: > 100 nM

SMILES: CC(C)CC(=O)Nc1cncc(-c2ccc3[nH]nc(C#Cc4ccccc4Cl)c3c2)c1
- IC50 [1]: > 100 nM

SMILES: CC(C)CC(=O)Nc1cncc(-c2ccc3[nH]nc(C#Cc4ccc(C=O)cc4)c3c2)c1
- IC50 [2]: 10.2 nM
- IC50 [1]: > 100 nM

SMILES: C(#Cc1n[nH]c2ccc(-c3cncc(OCC4CCCN4)c3)cc12)c1ccsc1 (stereo not given)
- IC50 [2]: 10 nM
- IC50 [1]: > 100 nM

SMILES: CC(C)CC(=O)Nc1cncc(-c2ccc3[nH]nc(C#CC4CC4)c3c2)c1
- IC50 [1]: > 100 nM

SMILES: CC(C)CC(=O)Nc1cncc(-c2ccc3[nH]nc(C#Cc4cccc(C(=O)O)c4)c3c2)c1
- IC50 [1]: > 100 nM

SMILES: CC(C)CC(=O)Nc1cncc(-c2ccc3[nH]nc(C#Cc4ncccn4)c3c2)c1
- IC50 [1]: > 100 nM

SMILES: CC(C)C[C@H](N)COc1cncc(-c2ccc3[nH]nc(C#CC4CC4)c3c2)c1
- IC50 [1]: > 100 nM

SMILES: Cc1[nH]nc2ccc(-c3cncc(OC[C@@H](N)CC(C)C)c3)cc12
- IC50 [2]: 12.3 nM
- IC50 [3]: 37.2 nM
- IC50 [1]: > 100 nM

SMILES: CC(C)CC(=O)Nc1cncc(-c2ccc3[nH]nc(C#Cc4ccc5cnccc5c4)c3c2)c1
- IC50 [1]: > 100 nM

SMILES: CC(C)C[C@H](N)COc1cncc(-c2ccc3[nH]nc(C#Cc4ccsc4)c3c2)c1
- inhibition [4]: 92.4%
- inhibition [5]: 94.4%
- inhibition [6]: 96%
- inhibition [7]: Dose-Dependent Effect
- IC50 [8]: 3.2 nM
- inhibition [9]: 94.1%
- inhibition [10]: 94.7%
- inhibition [11]: 93.2%
- IC50 [3]: 21.7 nM
- IC50 [12]: 21 nM
- inhibition [13]: 97.2%
- IC50 [1]: > 100 nM
- inhibition [14]: 93.1%

SMILES: CC(C)C[C@H](N)COc1cncc(-c2ccc3[nH]nc(C#Cc4cccc(F)c4)c3c2)c1
- IC50 [1]: > 100 nM

SMILES: CC(C)CC(=O)Nc1cncc(-c2ccc3[nH]nc(C#Cc4ccncc4)c3c2)c1
- IC50 [1]: > 100 nM

— ChEMBL document CHEMBL5518234, “Structure-Guided Discovery of Potent and Selective CLK2 Inhibitors for the Treatment of Knee Osteoarthritis” (J Med Chem, 2024)
